In article PMC6112376, “Comprehensive Analyses and Prioritization of Tox21 10K Chemicals Affecting Mitochondrial Function by in-Depth Mechanistic Studies” (Environmental Health Perspectives, 2018):
Structures can show the parent of a compound that is named as a salt. Where two headings read alike, the source gives them in different places.

How the values were obtained:
rat primary hepatocytes [1] = assay: MMP assay in rat primary hepatocytes; settings: for IC50: Rattus norvegicus, Hepatocyte, read-out: MMP assays IC50 (µM) Rat Hepatocytes
HepG2 cells [2] = settings: cited from earlier work
HepG2 cells [3] = assay: cells; settings: Homo sapiens; for IC50: HepG2, read-out: MMP assays IC50 (µM) HepG2; for Emax: HepG2, read-out: MMP assays efficacy (%) HepG2
rat primary hepatocytes [4] = test system: rat primary hepatocytes
[5] = read-out: MMP assays IC50 (µM) qHTS-HepG2
[6] = read-out: MMP assays IC50 (µM), qHTS-HepG2

| Structure (SMILES) | IC50 (rat primary hepatocytes [1]) [µM] | MMP assays efficacy (%) qHTS-HepG2 (HepG2 cells [2]) [%] | IC50 (HepG2 cells [2]; [5]) [µM] | IC50 (HepG2 cells [3]) [µM] | Emax (HepG2 cells [3]) [%] | MMP assays efficacy (%) Rat Hepatocytes (rat primary hepatocytes [4]) | MMP assays IC50 (µM) Rat Hepatocytes (rat primary hepatocytes [1]) | IC50 (HepG2 cells [2]; [6]) [µM] |
| --- | --- | --- | --- | --- | --- | --- | --- | --- |
| CCCCCc1cc(O)c2c(c1)OC(C)(C)c1ccc(C)cc1-2 [Cannabinol] | 21.8 | -124±7 | 1.68 | 1.09 | 103 | -98±2% |  |  |
| CC(C)(c1ccccc1)c1ccc(O)cc1 [Compound 4-Cumylphenol] | 48 ± 11.6 | -103±17 | 3.7 ± 0.82 | 3.55 | 108 | -77±17% |  |  |
| CC[C@@]1(O)C[C@H](O[C@H]2C[C@H](N(C)C)[C@H](O[C@H]3C[C@H](O)[C@H](O[C@H]4CCC(=O)[C@H](C)O4)[C@H](C)O3)[C@H](C)O2)c2c(cc3c(c2O)C(=O)c2c(O)cccc2C3=O)[C@H]1C(=O)OC [Aclarubicin hydrochloride] | 6.89 ± 9.73 | -70±15 | 3.15 ± 2.82 | 2.45 | 39 | -49±12% |  |  |
| CC(C)(C)CC(C)(C)c1ccc(O)cc1 [4-(1,1,3,3-Tetramethylbutyl)phenol] |  | -103±8 | 4.25 ± 0.92 | 4.89 | 100 | inactive | inactive |  |
| Cc1cccc(N)c1N [3-Methylbenzene-1,2-diamine] | 36.6 ± 11.8 | -67±14 | 21.7 ± 3.65 | 28.2 | 90 | -56±11% |  |  |
| Oc1cc(Cl)c(Cl)c(Cl)c1Cl [2,3,4,5-Tetrachlorophenol] | 11.6 ± 5.42 | -99±11 | 4.93 ± 2.04 | 7.94 | 121 | -76±25% |  |  |
| C/C=C(/C(=C/C)c1ccc(O)cc1)c1ccc(O)cc1 [Dienestrol] |  | -98±10 | 10.9 ± 1.88 | 8.3 | 84 | inactive | inactive |  |
| CC(NCCC(c1ccccc1)c1ccccc1)c1ccccc1 (stereo not drawn) [Fendiline hydrochloride] |  | -79±12 | 10.3 ± 1.55 | 9.75 | 87 | inactive | inactive |  |
| Nc1ccc(Cc2ccc(N)c(Cl)c2)cc1Cl [4,4'-Methylenebis(2-chloroaniline)] | 56.2 | -98±24 | 49.1 ± 17 | 39.8 | 87 | -52±15% |  |  |
| Nc1ccc(N)cc1 [1,4-Benzenediamine] |  | -85±6 | 3.28 ± 0.42 | 2.18 | 71 | inactive | inactive |  |
| CCC[C@@]1(CCc2ccccc2)CC(O)=C([C@H](CC)c2cccc(NS(=O)(=O)c3ccc(C(F)(F)F)cn3)c2)C(=O)O1 [Tipranavir] | 29.2 ± 2.37 | -93±5 |  | 17.3 | 100 | -96±11% |  | 26.6 ± 4.94 |
| COc1ccc(C(c2ccc(OC)cc2)C(Cl)(Cl)Cl)cc1 [Methoxychlor] | 27.7 ± 11 | -101±17 |  | 28.2 | 88 | -75±11% |  | 26.3 ± 8.69 |
| CCC(C)c1ccc(O)cc1 (stereo not drawn) [4-(Butan-2-yl)phenol] |  | -101±7 | 32 ± 3.64 | 35.5 | 77 | inactive | inactive |  |
| O=C(NC(=O)c1c(F)cccc1F)Nc1cc(Cl)c(OC(F)(F)C(F)C(F)(F)F)cc1Cl (stereo not drawn) [Lufenuron] | 45 ± 7.29 | -119±18 |  | 14.1 | 100 | -103±8% |  | 7.65 ± 0.7 |
| COC(=O)Nc1nc2ccc(C(=O)c3cccs3)cc2[nH]1 [Nocodazole] |  | -62±6 |  | 2.18 | 87 | inactive | inactive | 3.53 ± 1.63 |
| O=C1C(I)=CC(=C(c2cc(I)c(O)c(I)c2)c2ccccc2C(=O)O)C=C1I [Iodophthalein] | 7.32 ± 0.6 | -95±6 |  | 4.35 | 98 | -96±3% |  | 5.31 ± 1.76 |
| CC(C)OC(=O)C(O)(c1ccc(Cl)cc1)c1ccc(Cl)cc1 [Chloropropylate] | 43.8 ± 10.9 | -105±14 | 26.3 ± 3.64 | 44.7 | 102 | -66±32% |  |  |

| Structure (SMILES) | IC50 (rat primary hepatocytes [1]) [µM] | MMP assays efficacy (%) qHTS-HepG2 (HepG2 cells [2]) [%] | IC50 (HepG2 cells [2]; [5]) [µM] | IC50 (HepG2 cells [3]) [µM] | Emax (HepG2 cells [3]) [%] | MMP assays efficacy (%) Rat Hepatocytes (rat primary hepatocytes [4]) | MMP assays IC50 (µM) Rat Hepatocytes (rat primary hepatocytes [1]) | IC50 (HepG2 cells [2]; [6]) [µM] |
| --- | --- | --- | --- | --- | --- | --- | --- | --- |
| ClC(Cl)=C(c1ccc(Cl)cc1)c1ccc(Cl)cc1 [p,p'-DDE] |  | -96±25 |  | 44.7 | 105 | inactive | inactive | 25.6 ± 1.71 |
| Nc1ccc(-c2ccc(N)cc2)cc1 [Benzidine] | 2.51 ± 3.54 | -59±14 | 24.3 ± 4.5 | 15.8 | 79 | -69±64% |  |  |
| CCC(C)c1cccc(C(C)CC)c1O (stereo not drawn) [2,6-Di(butan-2-yl)phenol] |  | -85±30 | 13.7 ± 3.19 | 15.8 | 110 | inactive | inactive |  |
| CCCCC(=O)O[C@]1(C(=O)CO)[C@H](C)C[C@H]2[C@@H]3CCC4=CC(=O)C=C[C@]4(C)[C@@]3(F)[C@@H](O)C[C@@]21C [Dexamethasone valerate] | 23.5 ± 5.67 | -74±6 | 12.1 ± 4.39 | 17.3 | 114 | -66±25% |  |  |
| O=C(N/N=C/c1ccc([N+](=O)[O-])o1)c1ccc(O)cc1 [Nifuroxazide] | 6.71 ± 1.54 | -89±9 |  | 2.34 | 113 | -91±23% |  | 1.57 ± 0.3 |
| CS(=O)(=O)c1ccc(C(=O)C2C(=O)CCCC2=O)c([N+](=O)[O-])c1 [Mesotrione] |  | -75±17 |  | 39.8 | 72 | inactive | inactive | 18 ± 12 |
| Cc1cc2nc3c(=O)[nH]c(=O)nc-3n(C[C@H](O)[C@H](O)[C@H](O)CO)c2cc1C [Riboflavin] | 31.3 ± 8.72 | -113±7 |  | 11.2 | 86 | -97±58% |  | 7.02 ± 1.78 |
| C[C@]12CCC(=O)C[C@@H]1CC[C@@H]1[C@@H]2CC[C@]2(C)[C@@H](O)CC[C@@H]12 [Compound 5alpha-Dihydrotestosterone] |  | -72±9 | 13.3 ± 6.16 | 17.3 | 45 | inactive | inactive |  |
| O=[N+]([O-])c1ccc(Nc2ccccc2)cc1 [Compound 4-Nitro-N-phenylaniline] | 23.9 ± 7.05 | -99±15 | 7.43 ± 6.54 | 8.91 | 94 | -93±7% |  |  |
| CCCCCCCCCCCCc1ccc(O)cc1 [Compound 4-Dodecylphenol] | 25.1 ± 21.8 | -96±3 | 3.18 ± 0.58 | 5.01 | 102 | -53±17% |  |  |
| CC1(C)[C@H](C=C(Cl)Cl)[C@H]1C(=O)OCc1c(F)c(F)cc(F)c1F [Transfluthrin] |  | -89±13 |  | 19.4 | 70 | inactive | inactive | 25 ± 4.09 |
| CC(=O)C(Cl)(Cl)Cl [1,1,1-Trichloropropanone] | 23.7 ± 29.6 | -93±13 | 1.22 ± 0.56 | 3.16 | 123 | -42±17% |  |  |
| CCCN(CCC)c1c([N+](=O)[O-])cc(C(F)(F)F)cc1[N+](=O)[O-] [Trifluralin] | 32.6 ± 23.1 | -53±8 |  | 39.8 | 78 | -53±24% |  | 46.7 ± 9.14 |
| Oc1c(Cl)c(Cl)cc(Cl)c1Cl [2,3,5,6-Tetrachlorophenol] | 9.2 ± 2.96 | -94±3 | 6.42 ± 2.38 | 8.91 | 92 | -77±36% |  |  |
| CC(=O)Oc1ccc(C(c2ccc(OC(C)=O)cc2)c2ccccn2)cc1 [Bisacodyl] | 18.4 ± 13 | -67±5 | 14.8 ± 3.63 | 7.74 | 95 | -73±12% |  |  |
| C[C@H]1O[C@@H](O[C@H]2[C@@H](O)C[C@H](O[C@H]3[C@@H](O)C[C@H](O[C@H]4CC[C@@]5(C)[C@H](CC[C@@H]6[C@@H]5CC[C@]5(C)[C@@H](C7=CC(=O)OC7)CC[C@]65O)C4)O[C@@H]3C)O[C@@H]2C)C[C@H](O)[C@@H]1O [Digitoxin] |  | -77±6 | 0.16 ± 0.05 | 0.06 | 97 | inactive | inactive |  |
